The results in this text go back to patent US8518957B2, “Methanocarba adenosine derivatives, pharmaceutical compositions, and method of reducing intraocular pressure” (The United States of America, as represented by the …, priority 2009, dated 2013).

In this assay the target is T1, hA2AAR (Homo sapiens, UniProt P29274).
T1 construct: expressed in transfected cells
As to the kind of experiment: Radioligand binding at human A2A AR ([3H]CGS21680, membranes of HEK-293 cells). To be noted: for Ki / % inhibition, A2A: [3H]37, HEK293 cells; for Ki: read-out: Affinity (Ki, nM), A2A; for % inhibition, A2A: inhibition of radioligand binding at 10 μM. Put shortly:
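Membranes from CHO (hA1, hA3) or HEK-293 (hA2A) cells were pretreated with adenosine deaminase and incubated 60 min at 25° C in pH 7.5 Tris/10 mM MgCl2. Radioligands were A1 [3H]NECA 3.5 nM, A2A [3H]CGS21680 10 nM and A3 [125I]I-AB-MECA 0.34 nM. Bound ligand was filtered and Ki derived.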

Each structure is given as a SMILES string.

T1 sequence (P29274 whole entry): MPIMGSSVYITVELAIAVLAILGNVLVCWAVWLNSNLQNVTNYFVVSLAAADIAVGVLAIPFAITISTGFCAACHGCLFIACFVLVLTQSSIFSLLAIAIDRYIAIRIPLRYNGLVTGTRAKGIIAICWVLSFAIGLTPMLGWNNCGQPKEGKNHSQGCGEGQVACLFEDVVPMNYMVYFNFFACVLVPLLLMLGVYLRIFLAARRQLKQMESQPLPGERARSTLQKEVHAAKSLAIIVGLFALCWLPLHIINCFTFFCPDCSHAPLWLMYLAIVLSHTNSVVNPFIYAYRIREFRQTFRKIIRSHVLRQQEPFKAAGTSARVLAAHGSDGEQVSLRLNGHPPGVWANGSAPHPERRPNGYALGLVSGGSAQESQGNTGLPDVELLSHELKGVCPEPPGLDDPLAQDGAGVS

`C#CCCCCC#Cc1nc(NCc2cccc(Cl)c2)c2ncn(C3C(O)C(O)C4(C(=O)NC)CC34)c2n1` (stereo not drawn) [Compound 9, (1′S, 2′R, 3′S, 4′S, 5′S)-4′-[6-(3-Chlorobenzylamino)-2-(1,7-octadiynyl)-9H-purin-9-yl]-2′,3′-dihydroxybicyclo[3.1.0]hexane-1′-carboxylic acid N-methylamide]: the Ki stood at 7040 ± 1430 nM. For the compound `CNC(=O)[C@@]12C[C@@H]1[C@@H](n1cnc3c(NCc4cccc(Cl)c4)nc(C#CCCCCc4cn(-c5ccc(F)c([N+](=O)[O-])c5)nn4)nc31)[C@H](O)[C@@H]2O` [Compound 11], the Ki is 6730 ± 280 nM.

For the compound `CNC(=O)[C@@]12C[C@@H]1[C@@H](n1cnc3c(NCc4cccc(Cl)c4)nc(C#CCCCCc4cn(-c5ccc(N)cc5)nn4)nc31)[C@H](O)[C@@H]2O` [Compound 12, (1S,2R,3S,4R,5S)-4′-(6-(3-Chlorobenzylamino)-2-(6-(1-(4-amino-phenyl)-1H-1,2,3-triazol-4-yl)hex-1-ynyl)-9H-purin-9-yl)-2′,3′-dihydroxybicyclo[3.1.0]hexane-1′-carboxylic acid N-methylamide], the Ki was found to be 5490 ± 1150 nM. `CNC(=O)[C@@]12C[C@@H]1[C@@H](n1cnc3c(NCc4cccc(Cl)c4)nc(C#CCCCCc4cn(-c5ccc(C(=O)O)cc5)nn4)nc31)[C@H](O)[C@@H]2O` [Compound 13, (1S,2R,3S,4R,5S)-4′-(6-(3-Chlorobenzylamino)-2-(6-(1-(4-carboxyl-phenyl)-1H-1,2,3-triazol-4-yl)hex-1-ynyl)-9H-purin-9-yl)-2′,3′-dihydroxybicyclo[3.1.0]hexane-1′-carboxylic acid N-methylamide] had an inhibition at 10 µM of 40%. In the case of `CNC(=O)[C@@]12C[C@@H]1[C@@H](n1cnc3c(NCc4cccc(Cl)c4)nc(C#CCCCCc4cn(-c5ccc(C(=O)CBr)cc5)nn4)nc31)[C@H](O)[C@@H]2O` [Compound 14, (1S,2R,3S,4R,5S)-6-(3-Chlorobenzylamino)-4-(2-(6-(4-(2-bromoacetyl)phenyl)-1H-1,2,3-triazol-4-yphex-1-ynyl)-9H-purin-9-yl)-2′,3′-dihydroxybicyclo[3.1.0]hexane-1′-carboxylic acid N-methylamide], the Ki was 5740 ± 730 nM. On the same count and under the same terms, under `CNC(=O)[C@@]12C[C@@H]1[C@@H](n1cnc3c(NCc4cccc(Cl)c4)nc(C#CCCCCc4cn(CCNC(C)=O)nn4)nc31)[C@H](O)[C@@H]2O` [Compound 15, (1S,2R,3S,4R,5S)-6-(3-Chlorobenzylamino)-(2-(6-(1-(4-acetamidoethyl)-1H-1,2,3-triazol-4-yl)hex-1-ynyl)-9H-purin-9-yl)-2′,3′-dihydroxybicyclo[3.1.0]hexane-1′-carboxylic acid N-methylamide] stands 2440 ± 320 nM; under `CNC(=O)[C@@]12C[C@@H]1[C@@H](n1cnc3c(NCc4cccc(Cl)c4)nc(C#CCCCCc4cn(CCCCN)nn4)nc31)[C@H](O)[C@@H]2O` [Compound 16, (1S,2R,3S,4R,5S)-6-(3-Chlorobenzylamino)-(2-(6-(1-(4-aminobutyl)-1H-1,2,3-triazol-4-yl)hex-1-ynyl)-9H-purin-9-yl)-2′,3′-dihydroxybicyclo[3.1.0]hexane-1′-carboxylic acid N-methylamide], 1630 ± 350 nM. Turning to `CNC(=O)[C@@]12C[C@@H]1[C@@H](n1cnc3c(NCc4cccc(Cl)c4)nc(C#CCCCCc4cn(CCCCNC(C)=O)nn4)nc31)[C@H](O)[C@@H]2O` [Compound 17, (1S,2R,3S,4R,5S)-6-(3-Chlorobenzylamino)-(2-(6-(1-(4-acetamidobutyl)-1H-1,2,3-triazol-4-yl)hex-1-ynyl)-9H-purin-9-yl)-2′,3′-dihydroxybicyclo[3.1.0]hexane-1′-carboxylic acid N-methylamide], the Ki worked out at 7240 ± 510 nM. Same read-out and setting: the result for `CNC(=O)[C@@]12C[C@@H]1[C@@H](n1cnc3c(NCc4cccc(Cl)c4)nc(C#CCCCCc4cn(C56CC7CC(CC(C7)C5)C6)nn4)nc31)[C@H](O)[C@@H]2O` [Compound 18, (1S,2R,3S,4R,5S)-6-(3-Chlorobenzylamino)-(2-(6-(1-(adamantyl)-1H-1,2,3-triazol-4-yl)hex-1-ynyl)-9H-purin-9-yl)-2′,3′-dihydroxybicyclo[3.1.0]hexane-1′-carboxylic acid N-methylamide] reads 3280 ± 700 nM. Consider `CNC(=O)[C@@]12C[C@@H]1[C@@H](n1cnc3c(NCc4cccc(Cl)c4)nc(C#CCCCCc4cn(Cc5ccc(-n6sccc6=O)cc5)nn4)nc31)[C@H](O)[C@@H]2O` [Compound 19, (1S,2R,3S,4R,5S)-6-(3-Chlorobenzylamino)-(2-(1-(4-3-oxoisothiazol-2(3H)-yl)benzyl-1H-1,2,3-triazol-4-yphex-1-ynyl)-9H-purin-9-yl)-2′,3′-dihydroxybicyclo[3.1.0]hexane-β-carboxylic acid N-methylamide], for which 10 µM produced 49% inhibition. Compound `CNC(=O)[C@@]12C[C@@H]1[C@@H](n1cnc3c(NCc4cccc(Cl)c4)nc(C#CCCCCc4cn(CCCCCCNC(=O)CCCC[C@@H]5SC[C@@H]6NC(=O)N[C@@H]65)nn4)nc31)[C@H](O)[C@@H]2O` [Compound 20, (1S,2R,3S,4R,5S)-6-(3-Chlorobenzylamino)-(2-(6-(1-(6-(5-(3aS,4S,6aR)-oxohexahydro-1H-thieno[3,4-d]imidazol-4-yl)pentanamido)hexyl-1H-1,2,3-triazol-4-yl)hex-1-ynyl)-9H-purin-9-yl)-2′,3′-dihydroxybicyclo[3.1.0]hexane-1′-carboxylic acid N-methylamide] returned an inhibition at 10 µM of 27%. On to `CNC(=O)[C@@]12C[C@@H]1[C@@H](n1cnc3c(NCc4cccc(Cl)c4)nc(C#CCCCCc4cn(CCCCCCC(=O)NCCCCCCNC(=O)CCCC[C@@H]5SC[C@@H]6NC(=O)N[C@@H]65)nn4)nc31)[C@H](O)[C@@H]2O` [Compound 21], for which the “% inhibition, A2A” value is listed as “(19 ± 5%)”. Same read-out and setting: the result for `CNC(=O)[C@@]12C[C@@H]1[C@@H](n1cnc3c(NCc4cccc(Cl)c4)nc(C#CCCCCc4cn(CCCCCCNC(=O)c5ccc(-c6c7ccc(=N)c(S(=O)(=O)O)c-7oc7c(S(=O)(=O)O)c(N)ccc67)c(C(=O)O)c5)nn4)nc31)[C@H](O)[C@@H]2O` [Compound 23] reads “(23 ± 5%)”. With `CNC(=O)[C@@]12C[C@@H]1[C@@H](n1cnc3c(NCc4cccc(Cl)c4)nc(-c4nnn(-c5ccc(N=C=S)cc5)c4CCCCc4cn(-c5ccc(N=C=S)cc5)nn4)nc31)[C@H](O)[C@@H]2O` [Compound 25, (1S,2R,3S,4R,5S)-6-(3-Chlorobenzylamino)-(2-(1,6-bis(4-isothiocyante-phenyl)-1H-bis(1,2,3-triazol-4-yl)hex-1-ynyl)-9H-purin-9-yl)-2′,3′-dihydroxybicyclo[3.1.0]hexane-1′-carboxylic acid N-methylamide], the inhibition at 10 µM amounted to 40%. `CNC(=O)[C@@]12C[C@@H]1[C@@H](n1cnc3c(NCc4cccc(Cl)c4)nc(C#CCCCCc4cn(-c5ccc(N=C=S)cc5)nn4)nc31)[C@H](O)[C@@H]2O` [Compound 26, (1S,2R,3S,4R,5S)-6-(3-Chlorobenzylamino)-(2-(6-(1-(4-isothiocyante-phenyl)-1H-1,2,3-triazol-4-yl)hex-1-ynyl)-9H-purin-9-yl)-2′,3′-dihydroxybicyclo[3.1.0]hexane-1′-carboxylic acid N-methylamide] registered an inhibition at 10 µM of 28%.
